Source: PMC6172212, “Structural Analysis of Inhibitor Binding to CAMKK1 Identifies Features Necessary for Design of Specific Inhibitors” (Scientific Reports, 2018)
Structures can show the parent of a compound that is named as a salt. Where two headings read alike, the source gives them in different places. One block for each compound: values may come before it.

Assays:
CAMKK1 = tested on: CAMKK1; design: concentration or dose not given beside the values; settings: supplement; ref Anastassiadis et al. (2011); cited from earlier work
CAMKK2 = tested on: CAMKK2; design: concentration or dose not given beside the values; settings: supplement; ref Anastassiadis et al. (2011); cited from earlier work
[1] = target: T1, CAMKK1 kinase domain (CAMKK1-KD, Gln124-Lys411) (Homo sapiens, UniProt Q8N5S9); assay: Differential scanning fluorimetry (DSF) screen of a kinase inhibitor library against CAMKK1-KD; format: binding
T1 construct: The kinase domain (Gln124 to Lys411) was amplified using the primers; 6xHis (TEV-cleavable) (N, cleaved yes); made in house; host or cells: Escherichia coli BL21(DE3)-R3 co-expressing λ-phosphatase
Method: DSF measurements were made in a 384-well plate.
The compounds, previously solubilized in DMSO, were used at 10 µM final concentration and 0.1% DMSO. Plates were sealed using optically clear films and transferred to a QuantStudio 6 qPCR instrument (Applied Biosystems). […] Protein in 0.1% DMSO was used as a reference.

[2] = target: T2, CAMKK1 kinase domain (CAMKK1-KD) (Homo sapiens, UniProt Q8N5S9); assay: Isothermal titration calorimetry (ITC) with CAMKK1-KD; format: binding; settings: for ΔH: ITC at 20 °C, binding enthalpy
T2 construct: The kinase domain (Gln124 to Lys411) was amplified using the primers; 6xHis (TEV-cleavable) (N, cleaved yes); made in house; host or cells: Escherichia coli BL21(DE3)-R3 co-expressing λ-phosphatase
Method: Measurements were made using a MicroCal AutoiITC200 (Malvern, United Kingdom), at 20 °C with 1000 rpm stirring. For all measurements CAMKK1-KD protein was dialysed overnight against gel filtration buffer, and the dialysis buffer was used to dilute the inhibitors. CAMKK1-KD protein was titrated into a solution containing the inhibitor. […] ITC data was analysed with NITPIC, and SEDPHAT; figures were made using GUSSI[30].

[3] = target: T3, full length CAMKK1 (CAMKK1-FL) (Homo sapiens, UniProt Q8N5S9); assay: IC50 determination by TR-FRET enzymatic assay with CAMKK1-FL in the presence of Ca2+/calmodulin; format: biochemical
T3 construct: made in house; host or cells: Spodoptera frugiperda Sf9 insect cells (baculovirus)
Method: Final assay concentrations of the components of the enzyme mix were 5 nM CAMKK1-FL, 1 µM calmodulin, 1 mM CaCl2, 5 mM MgCl2, 1 mM DTT. Final concentrations of ATP and peptide were 100 µM ATP, 1 µM peptide (STK substrate S1). The inhibitor solutions were prepared starting from 10 mM solutions in DMSO, diluted in enzymatic assay buffer to 200 or 100 µM, and then a 2x serial dilution in enzymatic assay buffer was performed, yielding the serially diluted inhibitors at 2.5x final concentration. […] For detection, 5 µL of streptavidin-XL665, and 5 µL of antibody-Eu-cryptate were added. […] Data was analysed in GraphPad PRISM version 7.

[4] = DSF, 1 μM CAMKK1-KD, compound 10 µM, mean and standard error from triplicate measurements, read-out: ΔTm (°C) CAMKK1
[5] = DSF, CAMKK1-KD, compound 10 µM, repeated in Table 3, read-out: ΔTm (°C)
[6] = DSF, 1 μM CAMKK1-KD, compound 10 µM, supplement, read-out: Mean ΔTm (°C)
[7] = DSF, 1 μM CAMKK1-KD, compound 10 µM, supplement

T1 sequence (Q8N5S9 124-411): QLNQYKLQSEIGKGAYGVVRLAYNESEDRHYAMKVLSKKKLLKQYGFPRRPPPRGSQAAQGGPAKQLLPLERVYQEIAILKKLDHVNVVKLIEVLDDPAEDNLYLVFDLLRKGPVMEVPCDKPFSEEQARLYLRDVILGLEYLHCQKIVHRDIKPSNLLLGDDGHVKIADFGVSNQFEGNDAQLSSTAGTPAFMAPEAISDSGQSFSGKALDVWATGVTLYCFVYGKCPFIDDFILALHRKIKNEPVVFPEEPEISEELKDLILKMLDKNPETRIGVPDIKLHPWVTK
T2 sequence (Q8N5S9 124-411): as above

SMILES: CCN(CC)CCNC(=O)c1c(C)[nH]c(/C=C2\C(=O)Nc3ccc(F)cc32)c1C [Sunitinib Malate]
Remaining activity (%) from Anastassiadis et al. (2011) CAMKK1 (CAMKK1): 52%
Remaining activity (%) from Anastassiadis et al. (2011) CAMKK2 (CAMKK2): 65%

ΔTm at 10 µM [1, 4]: 13.6 ± 0.6 °C
ΔTm at 10 µM [1, 5]: 13.6 ± 0.6 °C
Kd [2]: 4 nM
ΔH [2]: -10.9 kcal/mol
IC50 [3]: 153 nM
SMILES: CC1(COc2ccc3c(c2)ncn3-c2ccc3cccc(N4CCC(N)CC4)c3n2)COC1 [Crenolanib (CP-868596), Crenolanib]

ΔTm at 10 µM [1, 6]: 5.7 °C
SMILES: CN1CCN(c2ccc3nc(-c4c(N)c5c(F)cccc5[nH]c4=O)[nH]c3c2)CC1 [Dovitinib (TKI-258) Dilactic Acid, Dovitinib]
Remaining activity (%) from Anastassiadis et al. (2011) CAMKK1 (CAMKK1): 49%
Remaining activity (%) from Anastassiadis et al. (2011) CAMKK2 (CAMKK2): 86%

ΔTm at 10 µM [1, 4]: 8.2 ± 0.6 °C
ΔTm at 10 µM [1, 5]: 8.2 ± 0.6 °C
Kd [2]: 45 nM
ΔH [2]: -9.11 kcal/mol
IC50 [3]: 89 nM
SMILES: COc1cc(N2CCC(N3CCN(C)CC3)CC2)ccc1Nc1ncc(Cl)c(Nc2ccccc2P(C)(C)=O)n1 [AP26113]

ΔTm at 10 µM [1, 6]: 3.4 °C
SMILES: Cc1cc(Nc2cc(N3CCN(C)CC3)nc(Sc3ccc(NC(=O)C4CC4)cc3)n2)[nH]n1 [VX-680 (Tozasertib), Tozasertib]
Remaining activity (%) from Anastassiadis et al. (2011) CAMKK1 (CAMKK1): 86%

SMILES: Cc1ccc(Nc2nccc(N(C)c3ccc4c(C)n(C)nc4c3)n2)cc1S(N)(=O)=O [Pazopanib]
Remaining activity (%) from Anastassiadis et al. (2011) CAMKK1 (CAMKK1): 72%
Remaining activity (%) from Anastassiadis et al. (2011) CAMKK2 (CAMKK2): 98%

ΔTm at 10 µM [1, 4]: 14.4 ± 0.9 °C
ΔTm at 10 µM [1, 5]: 14.4 ± 0.9 °C
Kd [2]: 7 nM
IC50 [3]: 101 nM
SMILES: COCCOc1ccc2c(c1)ncn2-c1ccc2cccc(N3CCC(N)CC3)c2n1 [CP-673451]

ΔTm at 10 µM [1, 4]: 16.1 ± 0.8 °C
ΔTm at 10 µM [1, 5]: 16.1 ± 0.8 °C
ΔH [2]: -20.5 kcal/mol
SMILES: O=C(O)c1ccc(-c2c[nH]c3ncc(-c4ccccc4)cc23)cc1C1CCCC1 [GSK650394]

ΔTm at 10 µM [1, 4]: 7 ± 0.8 °C
ΔTm at 10 µM [1, 5]: 7 ± 0.8 °C
Kd [2]: 26 nM
ΔH [2]: -14.1 kcal/mol
IC50 [3]: 107 nM
SMILES: CCS(=O)(=O)Nc1ccc2c(c1)/C(=C(/Nc1ccc(CN3CCCCC3)cc1)c1ccccc1)C(=O)N2 [Hesperadin]

SMILES: CNC(=O)c1cc(Oc2ccc(NC(=O)Nc3ccc(Cl)c(C(F)(F)F)c3)cc2)ccn1 [Sorafenib]
ΔTm at 10 µM ([1]; read-out: Mean ΔTm (°C)): 2.5 °C
Remaining activity (%) from Anastassiadis et al. (2011) CAMKK1 (CAMKK1): 103%
Remaining activity (%) from Anastassiadis et al. (2011) CAMKK2 (CAMKK2): 103%

SMILES: COc1cc2c(Nc3ccc(Br)cc3F)ncnc2cc1OCC1CCN(C)CC1 [Vandetanib (ZD6474), Vandetanib]
Remaining activity (%) from Anastassiadis et al. (2011) CAMKK1 (CAMKK1): 90%
Remaining activity (%) from Anastassiadis et al. (2011) CAMKK2 (CAMKK2): 102%

SMILES: CC(=O)c1c(C)c2cnc(Nc3ccc(N4CCNCC4)cn3)nc2n(C2CCCC2)c1=O [Palbociclib (PD-0332991) HCl, Palbociclib]
ΔTm at 10 µM ([1]; read-out: Mean ΔTm (°C)): 4.4 °C

ΔTm at 10 µM [1, 4]: 5.7 ± 1.2 °C
SMILES: C1=C/COCc2cc(ccc2OCCN2CCCC2)Nc2nccc(n2)-c2cccc(c2)COC/1 [Pacritinib (SB1518), Pacritinib]

Mean ΔTm (°C) [1, 7]: 4.3 °C
SMILES: O=C(Nc1cccc(Nc2ncc(Br)c(NCCc3cnc[nH]3)n2)c1)N1CCCC1 [BX-912]

ΔTm at 10 µM [1, 6]: 5.5 °C
SMILES: CN1CCN(C2CCN(C(=O)Nc3cc(Oc4ccc(NC(=O)C5(C(=O)Nc6ccc(F)cc6)CC5)c(F)c4)ccn3)CC2)CC1 [Golvatinib (E7050), Golvatinib]

Mean ΔTm (°C) [1, 7]: 5.7 °C
SMILES: Cc1[nH]nc2ccc(-c3cncc(OC[C@@H](N)Cc4ccccc4)c3)cc12 [A-674563]

Mean ΔTm (°C) [1, 7]: 4.8 °C
SMILES: COc1cc(C(=O)NC2CCN(C)CC2)ccc1Nc1ncc2c(n1)N(C1CCCC1)CC(F)(F)C(=O)N2C [Ro3280]

ΔTm at 10 µM [1, 6]: 2.7 °C
SMILES: Cc1nc(N)sc1-c1ccnc(Nc2ccc(N3CCOCC3)cc2)n1 [CYC116]

ΔTm at 10 µM [1, 4]: 2.6 ± 3.1 °C
SMILES: COc1cc2nccc(Oc3ccc(NC(=O)Nc4cc(C)on4)c(Cl)c3)c2cc1OC [Tivozanib (AV-951), Tivozanib]

ΔTm at 10 µM [1, 6]: 3.8 °C
SMILES: CO[C@@H](C(=O)N1Cc2n[nH]c(NC(=O)c3ccc(N4CCN(C)CC4)cc3)c2C1)c1ccccc1 [Danusertib (PHA-739358), Danusertib]

Mean ΔTm (°C) [1, 7]: 3.1 °C
SMILES: CN1CCN(c2ccc3nc(-c4c(N)c5c(F)cccc5[nH]c4=O)[nH]c3c2)CC1 [Dovitinib (TKI-258), Dovitinib]

ΔTm at 10 µM [1, 6]: 4.9 °C
SMILES: Cc1[nH]c(/C=C2\C(=O)Nc3ccccc32)c(C)c1CCC(=O)O [TSU-68 (SU6668)]

SMILES: CN[C@@H]1C[C@H]2O[C@@](C)([C@@H]1OC)n1c3ccccc3c3c4c(c5c6ccccc6n2c5c31)C(=O)NC4 [Staurosporine]
ΔTm at 10 µM ([1]; read-out: ΔTm (°C) CAMKK1): 23.7 ± 1.9 °C

ΔTm at 10 µM [1, 6]: 5 °C
SMILES: CCS(=O)(=O)c1cccc(-c2cc(C(=O)NC3CCN(C)CC3)c(C)c3[nH]c4ncc(C)cc4c23)c1 [TAK-901]

ΔTm at 10 µM [1, 4]: 7.7 ± 0.8 °C
SMILES: CC[C@@H]1C(=O)N(C)c2cnc(Nc3ccc(C(=O)N[C@H]4CC[C@H](N5CCN(CC6CC6)CC5)CC4)cc3OC)nc2N1C(C)C [Volasertib (BI 6727), Volasertib]

Mean ΔTm (°C) [1, 7]: 2.1 °C
SMILES: COc1cc2nccc(Oc3ccc(NC(=O)Nc4ccc(F)cc4F)c(F)c3)c2cc1OC [Ki8751]

SMILES: CCOc1ccn(-c2ccc(F)cc2)c(=O)c1C(=O)Nc1ccc(Oc2ccnc(N)c2Cl)c(F)c1 [BMS-777607]
ΔTm at 10 µM ([1]; read-out: ΔTm (°C) CAMKK1): 7.5 ± 0.3 °C

ΔTm at 10 µM [1, 6]: 4.7 °C
SMILES: N#CCNC(=O)c1ccc(-c2ccnc(Nc3ccc(N4CCOCC4)cc3)n2)cc1 [CYT387]

ΔTm at 10 µM [1, 6]: 3.6 °C
SMILES: Nc1nc(Nc2ccc(S(N)(=O)=O)cc2)nn1C(=O)c1c(F)cccc1F [JNJ-7706621]

Mean ΔTm (°C) [1, 7]: 4.1 °C
SMILES: NC(=O)c1cnc(N[C@@H]2CCCC[C@@H]2N)nc1Nc1cccc(-n2nccn2)c1 [PRT062607 (P505-15)]
